Legend:
[1] = test system: PANC-1 human pancreatic cancer cells; test: In vitro anti-proliferative effect, CCK-8 method, PANC-1; format: cell-based; conditions: Homo sapiens, PANC-1
Method: (§1) The inhibitory activities of the compounds towards Hut78 T lymphocytic leukemia cells, Jurkat E6-1 human T-cell lymphoma, PANC-1 human pancreatic cancer cells, A549 human lung cancer cells, K562 human chronic myelogenous leukemia cells, Hep3B2.1-7 human liver cancer cells, MDA-MB-435s human breast cancer cells. Colo320 human colorectal cancer cell lines, and PC-3 human prostate cancer at two concentrations of 100 μM and 10 μM were determined. The inhibition percentages were obtained through CCK-8 method.

[2] = test system: Jurkat E6-1 human T-cell lymphoma; test: In vitro anti-proliferative effect, CCK-8 method, Jurkat E6-1; format: cell-based; conditions: Homo sapiens, Jurkat E6.1
Method: as §1

[3] = test system: Colo320 human colorectal cancer cell lines; test: In vitro anti-proliferative effect, CCK-8 method, Colo320; format: cell-based; conditions: Homo sapiens, COLO 320, Colo320 cell strain, CCK-8 method; for inhibition at 10 µM: compound at 10 μM; for inhibition at 100 µM: compound at 100 μM
Method: as §1

[4] = test system: Hut78 T lymphocytic leukemia cells; test: In vitro anti-proliferative effect, CCK-8 method, Hut78; format: cell-based; conditions: Homo sapiens, HuT78, read-out: Hut-78 (inhibition %)
Method: as §1

[5] = Maximum tolerance dose through intragastrical administration; format: in vivo; conditions: mice, administrated intragastrically
Method: Forty ICR mice, half female and half male, weighing […] were divided into four groups, 10 mice in each group. After the mice were fasted for 6 h, the compound to be tested was administrated intragastrically to each group at a volume of 0.3 ml/10 g by using a sterile plastic syringe. General physical signs and the deaths of the animals were record at 1, 2 and 4 h after the administration. The animals were then observed continuously for 14 days and their weights, physical signs and deaths were observed and recorded every day. Dead animals were dissected to see if there was any visible pathological change in the animal's viscera and pathological examination was performed on suspicious tissues and organs. A part of the experimental results is as follows.

[6] = test system: A549 human lung cancer cells; test: In vitro anti-proliferative effect, CCK-8 method, A549; format: cell-based; conditions: Homo sapiens, A549
Method: as §1

HDACs = test: In vitro inhibition of HDACs (HDAC Inhibitor Drug Screening Kit, Biovision K340-100); format: biochemical; conditions: for inhibitory activity on HDACs compared with MS-275: concentrations of 2 mM, 200 μM, and 40 μM
Method: The in vitro inhibitory activities of the compounds towards HDACs were tested according to the instructions in the HDAC Inhibitor Drug Screening Kit (Biovision/Catalog #K340-100).
(1) The compounds to be tested were each individually prepared as 2 mM, 200 μM and 40 μM solutions and their inhibitory activities at these concentrations were tested.

[7] = test system: PC-3 human prostate cancer; test: In vitro anti-proliferative effect, CCK-8 method, PC-3; format: cell-based; conditions: Homo sapiens, PC-3 cell strain, CCK-8 method; for inhibition at 10 µM: compound at 10 μM; for inhibition at 100 µM: compound at 100 μM
Method: as §1

[8] = test system: Hep3B2.1-7 human liver cancer cells; test: In vitro anti-proliferative effect, CCK-8 method, Hep3B; format: cell-based; conditions: Homo sapiens, Hep3B cell strain, CCK-8 method; for inhibition at 10 µM: compound at 10 μM; for inhibition at 100 µM: compound at 100 μM
Method: as §1

[9] = test system: K562 human chronic myelogenous leukemia cells; test: In vitro anti-proliferative effect, CCK-8 method, K562; format: cell-based; conditions: Homo sapiens, K562
Method: as §1

[10] = test system: MDA-MB-435s human breast cancer cells; test: In vitro anti-proliferative effect, CCK-8 method, MDA-MB-435s; format: cell-based; conditions: Homo sapiens, MDA-MB-435S
Method: as §1

HDAC1 = HDAC1 (Homo sapiens (Human), UniProt Q13547); test: In vitro inhibition of subtype HDAC1 (HDAC1 Inhibitor Drug Screening Kit, Biovision); format: biochemical; conditions: for inhibition at 1 µM / inhibition at 10 µM: read-out: % Inhibition towards HDAC1
Chain of HDAC1 (Q13547 whole entry): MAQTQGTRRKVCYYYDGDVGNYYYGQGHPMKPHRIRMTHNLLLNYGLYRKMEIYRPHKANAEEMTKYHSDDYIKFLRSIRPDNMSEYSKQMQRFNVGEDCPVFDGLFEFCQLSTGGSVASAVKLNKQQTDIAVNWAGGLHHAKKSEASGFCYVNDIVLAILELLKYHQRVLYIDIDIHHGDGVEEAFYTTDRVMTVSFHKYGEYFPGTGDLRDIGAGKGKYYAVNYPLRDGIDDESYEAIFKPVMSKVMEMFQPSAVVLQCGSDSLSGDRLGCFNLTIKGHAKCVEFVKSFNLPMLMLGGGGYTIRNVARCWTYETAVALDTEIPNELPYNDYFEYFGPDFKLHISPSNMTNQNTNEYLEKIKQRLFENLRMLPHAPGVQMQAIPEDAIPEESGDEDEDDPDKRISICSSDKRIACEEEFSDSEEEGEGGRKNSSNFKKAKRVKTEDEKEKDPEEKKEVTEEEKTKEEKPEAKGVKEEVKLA
Method: The in vitro inhibitory activities of the compounds towards the subtype HDAC1 were tested according to the instructions in the HDAC1 Inhibitor Drug Screening Kit (Biovision).
(1) The compounds to be tested were each individually prepared as 10 μM and 1 μM solutions and their inhibitory activities at these concentrations were tested.
Each dilution sample was placed in two wells and the enzyme inhibition IC50 of the compound was tested.

SMILES	inhibition at 10 µM [1]	inhibition at 100 µM [1]	inhibition at 10 µM [2]	inhibition at 100 µM [2]	inhibition at 10 µM [3]	inhibition at 100 µM [3]	inhibition at 10 µM [4]	inhibition at 100 µM [4]	maximum tolerance dose [5]	inhibition at 10 µM [6]	inhibition at 100 µM [6]	Inhibition percentage (%) towards HDACs (HDACs; 40 μM)	inhibition at 10 µM [7]	inhibition at 100 µM [7]	inhibition at 10 µM [8]	inhibition at 100 µM [8]	inhibition at 10 µM [9]	inhibition at 100 µM [9]	inhibition at 10 µM [10]	inhibition at 100 µM [10]	other results
Nc1cnccc1NC(=O)c1ccc(Nc2ncnc3ccccc23)cc1 [Compound V-2]	20.7%	74.1%	58.5%	85.9%	39.6%	92.9%	63.4%	82.8%	over 2000 mg/kg	65.6%	84.8%	17.6%	90.3%	92.4%	31.2%	53.6%	21%	64.4%	35.8%	86.9%	Inhibition percentage (%) towards HDACs (HDACs; 200 μM): 28.0%; Inhibition percentage (%) towards HDACs (HDACs; 2 mM): 77.1%
COc1cc2ncnc(Nc3ccc(C(=O)Nc4ccncc4N)cc3)c2cc1OC [Compound V-4]	14.4%	11.9%	5.4%	23.7%	7.1%	16.8%	66.4%	95.8%	over 5000 mg/kg	-43.9%	-19.4%	36.3%	5.2%	15.9%	-10.2%	-12.1%	-1.3%	38.1%	-20.7%	-10.4%	IC50 (HDACs): 3.29 µM; inhibitory activity according to in vitro IC50 value against HDACs compared with MS-275 (HDACs): better inhibitory activities than MS-275; Inhibition percentage (%) towards HDACs (HDACs; 200 μM): 70.3%; Inhibition percentage (%) towards HDACs (HDACs; 2 mM): 85.3%; inhibitory activity on HDACs compared with MS-275 (HDACs): significantly stronger inhibitory activities than MS-275
COc1ccc2ncnc(Nc3ccc(C(=O)Nc4ccccc4N)cc3)c2c1 [Compound V-5, N-(2-aminophenyl)-4-(6-methoxyquinazoline-4-amino)benzamide]	10.5%	45.9%	62.2%	87.9%	13%	45.3%	15%	43.9%	over 2000 mg/kg	-44.3%	-13.1%	2.8%	0%	66.7%	7.3%	66.6%	49.4%	83.2%	-14.3%	84.1%	IC50 (HDACs): 7.79 µM; Inhibition percentage (%) towards HDACs (HDACs; 200 μM): 16.8%; Inhibition percentage (%) towards HDACs (HDACs; 2 mM): 36.7%
COc1ccc2ncnc(Nc3ccc(C(=O)Nc4cc(F)ccc4N)cc3)c2c1 [Compound V-6, N-(2-amino-5-fluorophenyl)-4-(6-methoxyquinazoline-4-amino)benzamide]	16.9%	19.7%	27.2%	93.3%	-5.5%	59.2%	15.5%	66.6%	over 5000 mg/kg	-16.9%	45.7%	34.5%	23.7%	56%	-7%	57.5%	53.6%	87.2%	8%	79.1%	inhibition at 1 µM (HDAC1): 6.47%; inhibition at 10 µM (HDAC1): 50.1%; IC50 (HDACs): 1.83 µM; inhibitory activity according to in vitro IC50 value against HDACs compared with MS-275 (HDACs): better inhibitory activities than MS-275; Inhibition percentage (%) towards HDACs (HDACs; 200 μM): 58.0%; Inhibition percentage (%) towards HDACs (HDACs; 2 mM): 87.1%; inhibitory activity on HDACs compared with MS-275 (HDACs): significantly stronger inhibitory activities than MS-275
Nc1cnccc1NC(=O)c1ccc(CNc2ncnc3ccccc23)cc1 [Compound V-26]	5.1%	40.8%	76.9%	95.1%	-0.2%	44.4%	79.6%	86.9%	–	4.2%	63.7%	11.4%	8.7%	52.6%	11.7%	63.5%	54%	88.2%	16.6%	73.6%	inhibition at 1 µM (HDAC1): 46.4%; inhibition at 10 µM (HDAC1): 88.4%; inhibitory activity against HDAC1 compared with MS-275 (HDAC1; both concentrations 10 μM and 1 μM): superior to that of MS-275; Inhibition percentage (%) towards HDACs (HDACs; 200 μM): 40.2%; Inhibition percentage (%) towards HDACs (HDACs; 2 mM): 82.4%
Nc1ccccc1NC(=O)c1ccc(CNc2ncnc3c(F)cccc23)cc1 [Compound V-43, N-(2-aminophenyl)-4-[(8-fluoroquinazoline-4-amino)methyl]benzamide]	3.1%	35.9%	69.1%	96.8%	19.1%	59.4%	75.7%	89.6%	over 5000 mg/kg	41.2%	85.5%	–	81.4%	89.4%	21.2%	58.8%	13.8%	60.8%	18.8%	86.4%	–
CC(=O)Nc1ccc2ncnc(NCc3ccc(C(=O)Nc4ccccc4N)cc3)c2c1 [Compound V-46, N-(2-aminophenyl)-4-[(6-acetamidoquinazoline-4-amino)methyl]benzamide]	8.1%	70.4%	14.8%	1.9%	13.7%	-9%	16.4%	93.4%	over 2000 mg/kg	7.7%	4.1%	–	-1.7%	-2.4%	17.5%	-5%	27.3%	18.9%	16.4%	4.1%	–
CC(=O)Nc1ccc2ncnc(NCc3ccc(C(=O)Nc4ccncc4N)cc3)c2c1 [Compound V-47]	2.8%	43%	59.4%	76.6%	11%	6%	9.9%	88.3%	over 5000 mg/kg	9.4%	8%	–	7.2%	12.8%	11.2%	19.2%	58%	62.1%	21.8%	29.2%	–

— patent US9034886B2, “4-aminoquinazoline derivatives and uses thereof” (Shanghai Institute of Pharmaceutical Industry, priority 2011, dated 2015)
